Test results taken from patent US11312763B2, “Anti-N3pGlu amyloid beta peptide antibodies and uses thereof” (Eli Lilly and Company, priority 2016, dated 2022).

System: deposited Aβ
Test: Prior 4-month study of BACE inhibitor in feed in aged PDAPP mice
Format: in vivo

Structure (SMILES): C[C@@]1(c2cc(-c3cncnc3)c(F)cc2F)CCSC(N)=N1 [LY2811376]
- change in the deposited Aβ over the 4-month interval: no change in the deposited Aβ
